Patent US7598234B2, “Steroid derived antibiotics” (Brigham Young University, priority 1998, dated 2009)
Values after ≈ are worked out from the molar mass of the structure shown.

Legend:
[1] = test system: Enterococcus faecalis ATCC 29212; assay: MIC and MBC measurement with Enterococcus faecalis ATCC 29212; type: cell-based; conditions: Table 10
Description: (§1) General: Microorganisms. Reference strains were purchased from the American Type Culture Collection (Rockville, Md.) or Bactrol disks from Difeo Laboratories (Detroit, Mich.). The following specific ATCC strains were used: 10798 Escherichia coli, 25922 Escherichia coli, 13883 Klebsiella pneumoniae, 27853 Pseudomonas aeruginosa, 14028 Salmonella typhimurium, 29212 Enterococcus faecalis, 25923 Staphylococcus aureus, 19615 Streptococcus pyogenes, and 90028 Candida albicans. Bacterial strains were maintained on Mueller-Hinton agar plates, and Candida albicans was maintained on Sabouraud Dextrose agar plates.
(§2) Tryptic soy broth (TSB) was made by dissolving 27.5 grams of tryptic soy broth without dextrose (DIFCO Laboratories) in 1 liter of deionized water and sterilizing at 121° C. for 15 minutes. Solid agar (TSA) plates were made by dissolving 6.4 grams of tryptic soy broth and 12 grams of agar (purified grade, Fischer Scientific) in 800 mL of deionized water and sterilizing at 121° C. for 20 minutes. Aliquots (20 mL) of the homogeneous solution were then poured in sterile plastic petri dishes (100×15 mm, Fisher Scientific). Solutions of compounds were made by dissolving the HCl salt of the respective compound into an appropriate amount of deionized and sterilized water followed by microfiltration.
(§3) Aliquots of 1 mL of the suspension were added to test tubes containing 1 mL TSB and incrementally varied concentrations of cholic acid derivatives and/or erythromycin or novobiocin. In the sensitization experiments, erythromycin or novobiocin were added 15 minutes later than the cholic acid derivatives. The samples were subjected to stationary incubation at 37° C. for 24 hours. Sample turbidity was determined by measuring absorption at 760 nm (HP 8453 UV-Visible Chemstation, Hewlett Packard). Additionally, an alliquot from each of the samples showing no measurable turbidity was subcultured on TSA plates (alliquots were diluted to provide fewer than 300 CFU). Colonies that grew on the subculture after overnight incubation were counted and the number of CFU/mL in the samples were calculated. The calculated values were compared to the number of CFU/mL in the original inoculum.

[2] = test system: Klebsiella pneumonia ATCC 13883; assay: MIC and MBC measurement with Klebsiella pneumoniae ATCC 13883; type: cell-based; conditions: Table 10
Description: as §1, §2, §3

[3] = test system: Streptococcus pyrogenes ATCC 19615; assay: MIC and MBC measurement with Streptococcus pyogenes ATCC 19615; type: cell-based; conditions: Table 10
Description: as §1, §2, §3

[4] = test system: E. coli (ATCC 25922); assay: Sensitization to erythromycin, E. coli (ATCC 25922); type: cell-based, Escherichia coli
Description: FICs can be performed by checkerboard titrations of compounds in one dimension of a microtiter plate, and of antibiotics in the other dimension, for example. The FIC is calculated by looking at the impact of one antibiotic on the MIC of the other and vice versa. […] Preferably, an FIC of less than 0.5 is obtained for synergism. As used herein, FIC can be determined as follows:
as §3
Concentrations of 0.5, 1.0 or 3.0 μg/mL of these antibiotics were used, and the concentrations of the cholic acid derivatives required to inhibit bacterial growth of Gram-negative strains were determined.
(§4) Minimum inhibition concentrations (MIC) and minimum hemolytic concentrations (MHC) were measured as described in Li et al., Antimicrob. Agents. Chemother., 1999, 43, 1347.

[5] = test system: Staphylococcus aureus ATCC 25923; assay: MIC and MBC measurement with Staphylococcus aureus ATCC 25923; type: cell-based; conditions: Table 10; Staphylococcus aureus ATCC 25923
Description: as §1, §2
as §3, with “inoculum. […]” for “inoculum.”

[6] = test system: Pseudomonas aeruginosa (ATCC 27853); assay: MIC and MBC measurement with Pseudomonas aeruginosa (ATCC 27853); type: cell-based
Description: as §1, §2, §3

[7] = test system: E. coli (ATCC 10798); assay: Sensitization to novobiocin (concentration lowering the MIC of novobiocin), E. coli (ATCC 10798); type: cell-based, Escherichia coli; conditions: Table 3, E. coli (ATCC 10798)
Description: (§5) Alternatively, “fractional inhibitory concentration (FIC)” is also useful for determination of synergy between the compounds of the invention, or the compounds in combination with known antibiotics. FICs can be performed by checkerboard titrations of compounds in one dimension of a microtiter plate, and of antibiotics in the other dimension, for example. The FIC is calculated by looking at the impact of one antibiotic on the MIC of the other and vice versa. […] Preferably, an FIC of less than 0.5 is obtained for synergism. As used herein, FIC can be determined as follows:
as §3
(§6) Ability to permeabilize outer membrane: Compounds 11, 106, and 108-114 (FIG. 1) were tested for antibiotic activity. They were also tested for the ability to permeabilize the outer membrane of Gram-negative bacteria, causing sensitization to hydrophobic antibiotics that cannot cross the outer membrane. The permeabilization of the outer membrane was measured using erythromycin and novobiocin.
(§7) The MICs of erythromycin and novobiocin against E. coli (ATCC 10798) at 70 and >500 μg/mL were measured.

[8] = test system: Salmonella typhimurium ATCC 14028; assay: MIC and MBC measurement with Salmonella typhimurium ATCC 14028; type: cell-based; conditions: Table 10
Description: as §1, §2, §3

[9] = test system: E. coli (ATCC 10798); assay: MIC and MBC measurement with E. coli (ATCC 10798); type: cell-based, Escherichia coli; conditions: Table 1; E. coli (ATCC 10798)
Description: as §1, §2, §3

[10] = test system: E. coli (ATCC 10798); assay: Sensitization to erythromycin (concentration lowering the MIC of erythromycin), E. coli (ATCC 10798); type: cell-based, Escherichia coli; conditions: Table 2, E. coli (ATCC 10798)
Description: as §5, §3, §6, §7

[11] = Description: as §4
[12] = test system: Pseudomonas aeruginosa (ATCC 27853); assay: Sensitization to novobiocin, Pseudomonas aeruginosa (ATCC 27853); type: cell-based; conditions: Table 8; P. aureginosa (ATCC 27853)
Description: as §5
as §3, with “inoculum. […]” for “inoculum.”
(§8) To measure permeabilization, the FIC values for compounds 1, 2, 5, 106, 10, 112, 133, and 134 with erythromycin, novobiocin, and rifampicin were determined. Concentrations of 0.5, 1.0 or 3.0 μg/mL of these antibiotics were used, and the concentrations of the cholic acid derivatives required to inhibit bacterial growth of Gram-negative strains were determined.

[13] = test system: Pseudomonas aeruginosa (ATCC 27853); assay: Sensitization to erythromycin, Pseudomonas aeruginosa (ATCC 27853); type: cell-based
Description: as §5
as §3, with “inoculum. […]” for “inoculum.”
as §8

[14] = test system: E. coli (ATCC 25922); assay: MIC and MBC measurement with E. coli (ATCC 25922); type: cell-based, Escherichia coli
Description: as §1, §2
as §3, with “inoculum. […]” for “inoculum.”

[15] = test system: Candida albicans ATCC 90028; assay: MIC and MBC measurement with Candida albicans ATCC 90028; type: cell-based; conditions: Table 10
Description: as §1, §2, §3

[16] = test system: Gram-negative bacteria; assay: MIC of ester and amide side chain compounds (Table 14); type: cell-based; conditions: strain not given
Description: as §3
(§9) Ester and amide side chains: Additional compounds, for example, compounds with amide and ester side chains, were tested.

[17] = test system: Gram-negative bacteria; assay: Sensitization to erythromycin, ester and amide side chain compounds (Table 14); type: cell-based; conditions: Table 14; strain not given
Description: as §3, §6, §9

[18] = test system: Gram-negative bacteria; assay: Sensitization to novobiocin, ester and amide side chain compounds (Table 14); type: cell-based; conditions: strain not given
Description: as §3, §6, §9

[19] = Table 6, P. aureginosa (ATCC 27853)
[20] = Table 10, Pseudomonas aeruginosa ATCC 27853
[21] = Table 10, Escherichia coli ATCC 25922

C[C@H](CCCN(C)Cc1ccccc1)[C@H]1CC[C@H]2[C@@H]3[C@H](OCCCNC(=N)N)C[C@@H]4C[C@H](OCCCNC(=N)N)CC[C@]4(C)[C@H]3C[C@H](OCCCNC(=N)N)[C@]12C [Compound 5]
MBC [1]: 16 µg/mL (≈ 20.1 µM) | MIC [1]: 2.2 µg/mL (≈ 2.77 µM) | MBC [2]: 6.7 µg/mL (≈ 8.43 µM) | MIC [2]: 3.0 µg/mL (≈ 3.77 µM) | MBC [3]: 2.1 µg/mL (≈ 2.64 µM) | MIC [3]: 2.0 µg/mL (≈ 2.52 µM) | MIC: concentration required to lower the MIC of erythromycin from 60 μg/mL to 1 μg/mL ([4]; Table 5, E. coli (ATCC 25922)): 1.5 µg/mL | MBC (with erythromycin) ([4]; Table 5, E. coli (ATCC 25922), erythromycin sensitization): 1.5 µg/mL | FIC ([4]; Table 11, Escherichia coli ATCC 25922, erythromycin (by order)): 0.31 | concentration required to inhibit bacterial growth with antibiotic ([4]; Table 11, Escherichia coli ATCC 25922, erythromycin (by order) at 0.5, 1.0 or 3.0 μg/mL): 0.38 µg/mL | MBC [5]: 3.2 µg/mL (≈ 4.02 µM) | MIC [5]: 0.6 µg/mL (≈ 0.755 µM) | MBC [6, 19]: 15 µg/mL (≈ 18.9 µM) | MIC [6, 19]: 6 µg/mL (≈ 7.55 µM) | MBC [6, 20]: 9.9 µg/mL (≈ 12.5 µM) | MIC [6, 20]: 5.9 µg/mL (≈ 7.42 µM) | MIC: concentration required to lower the MIC of novobiocin from >500 μg/mL to 1 μg/mL [7]: 2 µg/mL | MBC (with novobiocin) ([7]; novobiocin sensitization): 4 µg/mL | MBC [8]: 3.8 µg/mL (≈ 4.78 µM) | MIC [8]: 2.2 µg/mL (≈ 2.77 µM) | MBC [9]: 4 µg/mL (≈ 5.03 µM) | MIC [9]: 2 µg/mL (≈ 2.52 µM) | MIC: concentration required to lower the MIC of erythromycin from 70 μg/mL to 1 μg/mL [10]: 1 µg/mL | MBC (with erythromycin) ([10]; erythromycin sensitization): 3 µg/mL | MHC [11]: 26 µg/mL | MIC: concentration required to lower the MIC of novobiocin from >500 μg/mL to 1 μg/mL [12]: 6 µg/mL | MIC: concentration required to lower the MIC of erythromycin from 240 μg/mL to 5 μg/mL ([13]; Table 7, P. aureginosa (ATCC 27853)): 3 µg/mL | MBC (with erythromycin) ([13]; Table 7, P. aureginosa (ATCC 27853), erythromycin sensitization): 10 µg/mL | FIC ([13]; Table 11, Pseudomonas aeruginosa ATCC 27853, erythromycin (by order)): 0.42 | concentration required to inhibit bacterial growth with antibiotic ([13]; Table 11, Pseudomonas aeruginosa ATCC 27853, erythromycin (by order) at 0.5, 1.0 or 3.0 μg/mL): 2.3 µg/mL | MBC ([14]; Table 4, E. coli (ATCC 25922)): 4 µg/mL (≈ 5.03 µM) | MIC ([14]; Table 4, E. coli (ATCC 25922)): 2 µg/mL (≈ 2.52 µM) | MBC [14, 21]: 3.8 µg/mL (≈ 4.78 µM) | MIC [14, 21]: 1.4 µg/mL (≈ 1.76 µM) | MBC [15]: 50 µg/mL (≈ 62.9 µM) | MIC [15]: 11 µg/mL (≈ 13.8 µM)

C[C@H](CCCN(C)Cc1ccccc1)[C@H]1CC[C@H]2[C@@H]3[C@H](OC(=O)CN)C[C@@H]4C[C@H](OC(=O)CN)CC[C@]4(C)[C@H]3C[C@H](OC(=O)CN)[C@]12C.Cl.Cl.Cl.Cl [Compound 6]
MIC [16]: 85 µg/mL | a: concentration of cholic acid derivatives required to lower MIC of erythromycin to 1 μg/ML [17]: 15 µg/mL | MIC [9]: 65 µg/mL | MIC: concentration required to lower the MIC of erythromycin from 70 μg/mL to 1 μg/mL [10]: 22 µg/mL | b: concentration of cholic acid derivatives required to lower MIC of novobiocin to 1 μg/ML [18]: 40 µg/mL

C[C@H](CCCO)[C@H]1CC[C@H]2[C@@H]3[C@H](OC(=O)CN)C[C@@H]4C[C@H](OC(=O)CN)CC[C@]4(C)[C@H]3C[C@H](OC(=O)CN)[C@]12C [Compound 203a]
MIC [16]: 85 µg/mL | a: concentration of cholic acid derivatives required to lower MIC of erythromycin to 1 μg/ML [17]: 18 µg/mL | b: concentration of cholic acid derivatives required to lower MIC of novobiocin to 1 μg/ML [18]: 55 µg/mL

C[C@H](CCCO)[C@H]1CC[C@H]2[C@@H]3[C@H](OC(=O)CCN)C[C@@H]4C[C@H](OC(=O)CCN)CC[C@]4(C)[C@H]3C[C@H](OC(=O)CCN)[C@]12C [Compound 203b]
MIC [16]: 80 µg/mL | a: concentration of cholic acid derivatives required to lower MIC of erythromycin to 1 μg/ML [17]: 4 µg/mL | b: concentration of cholic acid derivatives required to lower MIC of novobiocin to 1 μg/ML [18]: 10 µg/mL
